ChEMBL document CHEMBL1201862, “PubChem BioAssay data set” (2004)
One block for each compound: values may come before it. Active and inactive are the calls of the source.

Legend:
[1] = target: T1, Sentrin-specific protease 6 (Homo sapiens, UniProt Q9GZR1); experiment: SAR Analysis of small molecule inhibitors of Sentrin-specific protease 6 (SENP6) using a Luminescent assay. [Related pubchem assays (depositor defined):AID2582, AID2599]; type: functional
T1 sequence (Q9GZR1 whole entry): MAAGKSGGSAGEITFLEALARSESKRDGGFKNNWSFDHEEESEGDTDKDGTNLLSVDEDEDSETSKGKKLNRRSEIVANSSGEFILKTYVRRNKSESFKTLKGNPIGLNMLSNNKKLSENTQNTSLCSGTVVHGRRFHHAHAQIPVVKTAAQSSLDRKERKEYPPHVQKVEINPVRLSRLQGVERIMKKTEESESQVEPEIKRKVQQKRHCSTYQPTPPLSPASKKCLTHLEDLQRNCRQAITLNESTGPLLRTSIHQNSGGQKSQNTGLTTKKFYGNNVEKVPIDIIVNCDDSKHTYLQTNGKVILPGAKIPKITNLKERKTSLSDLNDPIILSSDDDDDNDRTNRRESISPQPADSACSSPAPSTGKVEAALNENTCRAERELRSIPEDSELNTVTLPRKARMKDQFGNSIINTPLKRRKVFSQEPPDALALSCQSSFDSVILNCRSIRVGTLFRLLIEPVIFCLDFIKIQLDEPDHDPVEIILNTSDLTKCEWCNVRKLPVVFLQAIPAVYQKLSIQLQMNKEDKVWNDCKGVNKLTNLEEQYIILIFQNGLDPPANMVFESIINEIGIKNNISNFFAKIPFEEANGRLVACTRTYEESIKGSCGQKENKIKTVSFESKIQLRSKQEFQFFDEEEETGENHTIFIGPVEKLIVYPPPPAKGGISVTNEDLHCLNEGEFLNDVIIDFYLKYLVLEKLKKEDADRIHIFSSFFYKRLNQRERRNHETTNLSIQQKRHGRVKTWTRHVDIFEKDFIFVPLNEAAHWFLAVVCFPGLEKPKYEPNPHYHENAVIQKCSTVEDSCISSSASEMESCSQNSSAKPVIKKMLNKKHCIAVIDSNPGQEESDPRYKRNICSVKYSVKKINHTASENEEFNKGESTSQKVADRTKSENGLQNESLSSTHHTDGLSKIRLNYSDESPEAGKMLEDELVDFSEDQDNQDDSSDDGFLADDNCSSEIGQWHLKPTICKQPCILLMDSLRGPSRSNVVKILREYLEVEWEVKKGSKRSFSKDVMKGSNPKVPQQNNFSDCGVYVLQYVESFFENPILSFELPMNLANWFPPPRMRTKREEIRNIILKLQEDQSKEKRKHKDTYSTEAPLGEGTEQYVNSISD

[2] = target: T2, Sentrin-specific protease 8 (Homo sapiens, UniProt Q96LD8); experiment: SENP8 protease inhibitors, SAR follow-up, biochemical, luminescence (AID 504501); type: functional
T2 sequence (Q96LD8 whole entry): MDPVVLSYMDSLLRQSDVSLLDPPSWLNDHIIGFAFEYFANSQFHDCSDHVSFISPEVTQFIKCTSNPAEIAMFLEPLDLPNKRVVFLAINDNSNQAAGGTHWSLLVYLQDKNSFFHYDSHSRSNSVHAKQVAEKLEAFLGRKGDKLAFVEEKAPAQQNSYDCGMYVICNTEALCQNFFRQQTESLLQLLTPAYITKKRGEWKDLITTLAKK

[3] = target: T3, Sentrin-specific protease 7 (Homo sapiens, UniProt Q9BQF6); experiment: SENP7 protease inhibitors, SAR follow-up, biochemical, luminescence (AID 504497); type: functional
T3 sequence (Q9BQF6 whole entry): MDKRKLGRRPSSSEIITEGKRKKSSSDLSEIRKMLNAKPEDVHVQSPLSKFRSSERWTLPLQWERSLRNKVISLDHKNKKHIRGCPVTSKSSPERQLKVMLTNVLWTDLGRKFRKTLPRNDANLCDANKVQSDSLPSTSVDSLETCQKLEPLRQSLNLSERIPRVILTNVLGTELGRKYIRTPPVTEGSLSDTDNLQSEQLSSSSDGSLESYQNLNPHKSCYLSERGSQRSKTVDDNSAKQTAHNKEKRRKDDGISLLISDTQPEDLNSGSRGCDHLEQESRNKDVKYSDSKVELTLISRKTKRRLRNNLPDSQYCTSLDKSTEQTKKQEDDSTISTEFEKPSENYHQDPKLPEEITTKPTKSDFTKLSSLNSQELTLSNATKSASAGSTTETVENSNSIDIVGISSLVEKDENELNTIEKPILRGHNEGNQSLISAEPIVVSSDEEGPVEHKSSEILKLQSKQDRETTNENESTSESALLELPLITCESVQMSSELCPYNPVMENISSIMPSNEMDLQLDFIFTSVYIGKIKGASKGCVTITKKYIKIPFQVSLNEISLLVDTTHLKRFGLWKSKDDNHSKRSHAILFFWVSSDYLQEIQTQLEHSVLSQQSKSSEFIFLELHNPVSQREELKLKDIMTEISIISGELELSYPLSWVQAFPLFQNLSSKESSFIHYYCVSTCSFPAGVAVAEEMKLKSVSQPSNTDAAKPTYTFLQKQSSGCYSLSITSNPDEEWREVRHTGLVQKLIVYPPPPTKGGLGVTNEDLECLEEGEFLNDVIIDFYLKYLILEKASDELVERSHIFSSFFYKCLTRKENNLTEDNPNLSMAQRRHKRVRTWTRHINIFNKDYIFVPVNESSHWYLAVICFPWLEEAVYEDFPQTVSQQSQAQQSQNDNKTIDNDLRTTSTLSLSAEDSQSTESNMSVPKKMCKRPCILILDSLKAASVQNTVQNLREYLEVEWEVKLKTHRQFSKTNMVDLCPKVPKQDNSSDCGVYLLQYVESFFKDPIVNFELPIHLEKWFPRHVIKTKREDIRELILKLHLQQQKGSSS

Caspase-3 = target: T4, Caspase-3 (Homo sapiens, UniProt P42574); experiment: SAR Analysis of small molecule inhibitors of Sentrin-specific proteases (SENPs) using a Caspase-3 Selectivity assay. [Related pubchem assays (depositor defined):AID2540, AID2599, AID434973, AID489001]; type: functional
T4 sequence (P42574 whole entry): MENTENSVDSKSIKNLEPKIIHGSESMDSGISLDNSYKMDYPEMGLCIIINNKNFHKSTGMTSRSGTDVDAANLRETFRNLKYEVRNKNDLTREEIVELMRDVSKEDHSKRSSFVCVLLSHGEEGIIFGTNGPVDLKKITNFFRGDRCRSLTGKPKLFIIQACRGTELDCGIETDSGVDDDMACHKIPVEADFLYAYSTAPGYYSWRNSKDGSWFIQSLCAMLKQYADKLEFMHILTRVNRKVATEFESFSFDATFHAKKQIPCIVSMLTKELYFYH

Phospholipase A2 = Phospholipase A2 (Homo sapiens, UniProt P04054); type: functional;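 also: confirmatory dose-response counterscreen on phospholipase A2, testing hits that came from an ultra-high-throughput screen for ATG4B inhibitors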
Cysteine protease ATG4B = target: T5, Cysteine protease ATG4B (Homo sapiens, UniProt Q9Y4P1); type: functional;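 also: Fluorescence-based dose-response confirmation assay measuring inhibition of ATG4B activity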
T5 sequence (Q9Y4P1 whole entry): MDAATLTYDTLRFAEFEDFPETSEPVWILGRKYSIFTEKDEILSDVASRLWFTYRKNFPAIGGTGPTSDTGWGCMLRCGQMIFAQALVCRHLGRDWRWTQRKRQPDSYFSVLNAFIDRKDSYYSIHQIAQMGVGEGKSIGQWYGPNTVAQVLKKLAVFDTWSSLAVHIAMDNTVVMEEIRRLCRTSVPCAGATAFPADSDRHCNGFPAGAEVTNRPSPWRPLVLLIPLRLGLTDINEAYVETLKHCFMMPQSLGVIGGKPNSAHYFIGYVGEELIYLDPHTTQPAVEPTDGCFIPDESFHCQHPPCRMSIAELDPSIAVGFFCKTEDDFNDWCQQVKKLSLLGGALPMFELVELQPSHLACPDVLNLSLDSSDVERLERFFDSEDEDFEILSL

[4] = target: T6, Mannose-6-phosphate isomerase (Homo sapiens, UniProt P34949); experiment: PMI enzyme inhibitors, confirmation, biochemical, fluorescence intensity (AID 1535)
T6 sequence (P34949 whole entry): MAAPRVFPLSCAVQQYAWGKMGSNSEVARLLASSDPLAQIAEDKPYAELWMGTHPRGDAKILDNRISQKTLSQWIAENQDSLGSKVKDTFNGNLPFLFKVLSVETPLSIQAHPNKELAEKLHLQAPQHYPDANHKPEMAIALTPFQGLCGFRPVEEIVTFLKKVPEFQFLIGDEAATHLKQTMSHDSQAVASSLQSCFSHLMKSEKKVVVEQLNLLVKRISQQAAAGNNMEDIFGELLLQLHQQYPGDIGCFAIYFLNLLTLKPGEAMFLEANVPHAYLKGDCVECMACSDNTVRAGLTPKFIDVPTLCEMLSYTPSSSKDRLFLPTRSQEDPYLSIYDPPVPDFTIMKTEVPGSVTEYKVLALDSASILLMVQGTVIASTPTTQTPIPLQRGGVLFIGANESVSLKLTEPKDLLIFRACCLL

Phosphomannomutase 2 = target: T7, Phosphomannomutase 2 (Homo sapiens, UniProt O15305); experiment: Counter screen SAR assay for PMM2 inhibitors via a fluorescence intensity assay. [Related pubchem assays (depositor defined):AID1545, AID1574]
T7 sequence (O15305 whole entry): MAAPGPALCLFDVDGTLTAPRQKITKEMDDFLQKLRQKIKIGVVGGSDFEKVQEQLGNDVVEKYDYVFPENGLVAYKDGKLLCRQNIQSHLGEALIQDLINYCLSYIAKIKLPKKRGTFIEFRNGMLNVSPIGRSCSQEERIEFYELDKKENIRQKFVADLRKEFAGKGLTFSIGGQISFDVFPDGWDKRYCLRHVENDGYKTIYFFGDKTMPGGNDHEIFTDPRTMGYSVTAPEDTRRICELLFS

[5] = target: T8, Phosphoethanolamine/phosphocholine phosphatase (Homo sapiens, UniProt Q8TCT1); experiment: SAR assay for compounds that inhibit PHOSPHO1. [Related pubchem assays (depositor defined):AID1545, AID1565, AID1574]
T8 sequence (Q8TCT1 whole entry): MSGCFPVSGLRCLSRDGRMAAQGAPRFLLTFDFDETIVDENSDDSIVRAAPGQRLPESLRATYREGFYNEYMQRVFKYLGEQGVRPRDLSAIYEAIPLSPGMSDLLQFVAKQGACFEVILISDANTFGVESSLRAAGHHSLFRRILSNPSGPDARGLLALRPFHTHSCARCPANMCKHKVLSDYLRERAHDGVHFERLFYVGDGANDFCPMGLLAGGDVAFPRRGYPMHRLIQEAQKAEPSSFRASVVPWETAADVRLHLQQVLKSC

[6] = cytotoxicity in HMLE control line with eGFP shRNA, dose response, counter-screen for HMLE_sh_ECad selective toxicity project, cell-based, HMLE_sh_eGFP, luminescence (AID 463074); type: functional, Homo sapiens;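 also: HMLE human mammary epithelial cells expressing control shRNA against eGFP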
[7] = Luminescence Cell-Based Dose Retest to Confirm Inhibitors of Cancer Stem Cells. [Related pubchem assays (depositor defined):AID2717, AID2721]; type: functional, Homo sapiens; details: Homo sapiens
cells [8] = type: functional, cell-based
cells [9] = type: functional, cell-based; remark: listed apart in the source
[10] = target: T9, Alkaline phosphatase, tissue-nonspecific isozyme (Homo sapiens, UniProt P05186); experiment: human TNAP enzyme inhibitors, SAR follow-up, biochemical, luminescent, dose response (AID 1056)
T9 sequence (P05186 whole entry): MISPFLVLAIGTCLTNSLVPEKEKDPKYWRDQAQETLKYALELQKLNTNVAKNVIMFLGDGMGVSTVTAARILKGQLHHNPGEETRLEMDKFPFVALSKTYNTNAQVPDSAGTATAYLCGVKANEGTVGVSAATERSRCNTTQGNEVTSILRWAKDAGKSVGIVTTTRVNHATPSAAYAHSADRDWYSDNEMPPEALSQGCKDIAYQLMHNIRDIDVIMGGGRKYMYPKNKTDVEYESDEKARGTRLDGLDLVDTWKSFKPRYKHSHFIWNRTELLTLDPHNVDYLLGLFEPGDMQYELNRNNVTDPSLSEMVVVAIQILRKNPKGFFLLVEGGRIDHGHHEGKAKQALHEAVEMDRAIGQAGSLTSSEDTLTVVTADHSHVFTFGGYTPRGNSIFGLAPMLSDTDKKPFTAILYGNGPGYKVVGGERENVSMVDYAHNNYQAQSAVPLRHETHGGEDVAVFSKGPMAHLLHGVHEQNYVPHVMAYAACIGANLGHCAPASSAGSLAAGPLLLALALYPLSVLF
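For EC50 in this document: agonist potency from rise in intracellular calcium fluorescence.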

Phospholipase A2, sequence (P04054 whole entry): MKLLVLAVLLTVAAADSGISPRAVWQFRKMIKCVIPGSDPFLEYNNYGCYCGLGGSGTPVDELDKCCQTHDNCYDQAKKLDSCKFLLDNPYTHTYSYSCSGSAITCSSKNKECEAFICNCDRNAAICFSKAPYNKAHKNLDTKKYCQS

IC50 (Phospholipase A2): 17.9 µM (active)
IC50 (Cysteine protease ATG4B): 22.7 µM (inactive)
Structure (SMILES): Cc1cc(C)nc(SCc2ccc(C(=O)N/N=C3\CC(C)CC(C)(C)C3)cc2)n1 (configuration not stated)

IC50 (Phospholipase A2): 8.38 µM (active)
IC50 (Cysteine protease ATG4B): 12.4 µM (active)
Structure (SMILES): Fc1ccc(CCN=C(S)Nc2ccc(F)c(Cl)c2)cc1

IC50 [4]: > 50 µM (inactive)
IC50 (Phosphomannomutase 2): > 100 µM (inactive)
IC50 [5]: > 100 µM (inactive)
Structure (SMILES): O=c1c2ccc(F)cc2sn1-c1ccc(Cl)c(Cl)c1

IC50 [1]: > 99 µM (inactive)
IC50 [3]: > 99 µM (inactive)
IC50 (Caspase-3): > 99 µM (inactive)
Structure (SMILES): Fc1ccc(/C=C/c2noc(-c3ccc(C(F)(F)F)cc3F)n2)cc1
IC50 [2]: > 99 µM (inactive)

Second part, the compound before the results:

Structure (SMILES): CC(C)(CC(=O)Nc1scc(-c2ccc(Br)cc2)c1C(=O)O)CC(=O)Nc1scc(-c2ccc(Br)cc2)c1C(=O)O
IC50 [1]: > 99 µM (inactive)
IC50 [2]: > 99 µM (inactive)
IC50 [3]: > 99 µM (inactive)
IC50 (Caspase-3): > 99 µM (inactive)

Structure (SMILES): OC(COc1ccc(CNCCc2ccccc2F)cc1)CN1CCCCC1 (configuration not stated)
AC50 [6]: 33.9 µM (active)
AC50 [7]: > 195 µM (inactive)
EC50 (cells [8]): > 29.9 µM (inactive)
IC50 (cells [9]): > 29.9 µM (inactive)

Structure (SMILES): CCOC(=O)c1ccc(-n2sc3ccccc3c2=O)cc1
IC50 [4]: 23.6 µM (active)
IC50 [10]: > 100 µM (inactive)
IC50 (Phosphomannomutase 2): > 100 µM (inactive)
IC50 [5]: 1.24 µM (inactive)

Structure (SMILES): COc1ccc(-c2cc([C@H]3[C@H]4C=CC[C@@H](C)[C@@H]4C(=O)N3Cc3ccccc3)ccc2F)cc1
AC50 [6]: 22 µM (active)
AC50 [7]: 2.76 µM (active)

Structure (SMILES): Cc1onc(-c2ccccc2)c1C(=O)Nc1sc2c(c1C#N)CCC(C)C2 (configuration not stated)
AC50 [6]: 26.3 µM (active)
AC50 [7]: 1.12 µM (active)
